Measured values taken from paper PMC4700511 (Biochemistry, 2015).
≈ marks a conversion by molar mass, not a printed value.

Columns and labels:
[1] = system: CC(=O)OCC1=C(C(=O)O)N2C(=O)[C@@H](NC(=O)Cc3cccs3)[C@H]2SC1; test: purified protein, by the assay type; settings: other: VIM-2, substrate hydrolysis, 10 mM HEPES pH 7.5, 25 °C
[2] = system: O=C(Cc1cccs1)N[C@@H]1C(=O)N2C(C(=O)O)=C(/C=C/c3ccc([N+](=O)[O-])cc3[N+](=O)[O-])CS[C@H]12; test: purified protein, by the assay type; settings: other: VIM-2, substrate hydrolysis, 10 mM HEPES pH 7.5, 25 °C
[3] = system: C[C@@H](O)[C@H]1C(=O)N2C(C(=O)O)=C(SCCN=CN)C[C@H]12; test: purified protein, by the assay type; settings: other: VIM-2, substrate hydrolysis, 10 mM HEPES pH 7.5, 25 °C
[4] = system: E. coli DH10B pBCSK(−) producing R228Q; test: MIC by agar dilution, E. coli DH10B pBCSK; assay type: cell-based; settings: Escherichia coli
[5] = system: E. coli DH10B pBCSK(−) producing R228Y; test: MIC by agar dilution, E. coli DH10B pBCSK; assay type: cell-based; settings: Escherichia coli
[6] = system: E. coli DH10B pBCSK(−) producing R228K; test: MIC by agar dilution, E. coli DH10B pBCSK; assay type: cell-based; settings: Escherichia coli
[7] = system: E. coli DH10B pBCSK(−) producing R228P; test: MIC by agar dilution, E. coli DH10B pBCSK; assay type: cell-based; settings: Escherichia coli
[8] = system: E. coli DH10B pBCSK(−) producing VIM-2 (228R); test: MIC by agar dilution, E. coli DH10B pBCSK; assay type: cell-based; settings: Escherichia coli
[9] = system: E. coli DH10B pBCSK(−) producing R228X (other variants); test: MIC by agar dilution, E. coli DH10B pBCSK; assay type: cell-based; settings: Escherichia coli, R228X: range of MIC values of the other variants; MHA
[10] = system: E. coli DH10B pBCSK(−) producing R228M; test: MIC by agar dilution, E. coli DH10B pBCSK; assay type: cell-based; settings: Escherichia coli
E. coli pBC SK(−) = test: MIC by agar dilution, E. coli DH10B with empty pBC SK; assay type: cell-based; settings: Escherichia coli
[11] = system: E. coli DH10B pBCSK(−) producing VIM-24 (R228L); test: MIC by agar dilution, E. coli DH10B pBCSK; assay type: cell-based; settings: Escherichia coli
VIM-2 [12] = biological target: T1, VIM-2 (Escherichia coli, UniProt Q5U7L7); test: Hydrolysis of cefepime and ceftazidime by periplasm preparations, VIM-2; assay type: biochemical, P. aeruginosa; settings: VIM-2 periplasmic preparation
VIM-24 [13] = biological target: T2, VIM-24 (Escherichia coli, UniProt Q5U7L7, R205L); test: Hydrolysis of cefepime and ceftazidime by periplasm preparations, VIM-24; assay type: biochemical, Klebsiella pneumoniae; settings: VIM-24 periplasmic preparation
VIM-24 [14] = biological target: T2, VIM-24; test: BTZ inhibition kinetics of nitrocefin hydrolysis by VIM-24; assay type: biochemical, Klebsiella pneumoniae; settings: overall dissociation constant from vs, slow binding model
MBLs = test: Inhibitory activity toward MBLs after prolonged exposure to oxidative conditions; assay type: biochemical; settings: assays in solution; data not shown
VIM-2 [15] = biological target: T1, VIM-2; test: BTZ inhibition kinetics of nitrocefin hydrolysis by VIM-2; assay type: biochemical, P. aeruginosa; settings: overall dissociation constant from vs, slow binding model
VIM-24 [16] = assay type: biochemical, Klebsiella pneumoniae; settings: VIM-24 (R228L) vs VIM-2
VIM-24 [17] = biological target: T2, VIM-24; assay type: biochemical, Klebsiella pneumoniae; settings: VIM-24; substrate hydrolysis, 10 mM HEPES pH 7.5, 25 °C

Row | Compound | MIC ([4]; MHA) | MIC ([5]; MHA) | MIC ([6]; MHA) | MIC ([7]; MHA) | MIC ([8]; MHA) | MIC [9] | MIC ([10]; MHA) | MIC (E. coli pBC SK(−); MHA) | MIC ([11]; MHA) | MIC ([4]; MHA + 5 μM EDTA) | MIC ([4]; MHA + 250 μM Zn^2+) | MIC ([5]; MHA + 5 μM EDTA) | MIC ([5]; MHA + 250 μM Zn^2+) | MIC ([6]; MHA + 5 μM EDTA) | MIC ([6]; MHA + 250 μM Zn^2+) | MIC ([7]; MHA + 5 μM EDTA) | MIC ([7]; MHA + 250 μM Zn^2+) | MIC ([8]; MHA + 5 μM EDTA) | MIC ([8]; MHA + 250 μM Zn^2+) | MIC ([10]; MHA + 5 μM EDTA) | further results
1 | VIM-2 (Escherichia coli) | – | – | – | – | – | – | – | – | – | – | – | – | – | – | – | – | – | – | – | – | Km [1]: 17 ± 2 µM; kcat [1]: 168 ± 8 s⁻¹; kcat/Km [1]: 9.8e+06 M⁻¹ s⁻¹; Km [2]: 13 ± 1 µM; kcat [2]: 430 ± 20 s⁻¹; kcat/Km [2]: 3.3e+07 M⁻¹ s⁻¹; Km [3]: 12 ± 1 µM; kcat [3]: 45 ± 1 s⁻¹; kcat/Km [3]: 3.6e+06 M⁻¹ s⁻¹
2 | CO/N=C(\C(=O)N[C@@H]1C(=O)N2C(C(=O)O)=C(COC(C)=O)CS[C@H]12)c1csc(N)n1 [cefotaxime] | 32 µg/mL (≈ 70.3 µM) | 16 µg/mL (≈ 35.1 µM) | 1 µg/mL (≈ 2.2 µM) | 1 µg/mL (≈ 2.2 µM) | 8 µg/mL (≈ 17.6 µM) | 2 to 32 µg/mL (≈ 4.39 to 70.3 µM) | 16 µg/mL (≈ 35.1 µM) | 0.06 µg/mL (≈ 0.132 µM) | 16 µg/mL (≈ 35.1 µM) | – | – | – | – | – | – | – | – | – | – | – | –
3 | CO/N=C(\C(=O)N[C@@H]1C(=O)N2C(C(=O)[O-])=C(C[N+]3(C)CCCC3)CS[C@H]12)c1csc(N)n1 [cefepime] | 16 µg/mL (≈ 33.3 µM) | 8 µg/mL (≈ 16.6 µM) | 0.5 µg/mL (≈ 1.04 µM) | 0.25 µg/mL (≈ 0.52 µM) | ≤ 0.5 µg/mL | 1 to 4 µg/mL (≈ 2.08 to 8.32 µM) | 2 µg/mL (≈ 4.16 µM) | 0.03 µg/mL (≈ 0.0624 µM) | 4 µg/mL (≈ 8.32 µM) | 16 µg/mL | 32 µg/mL | 8 µg/mL | 8 µg/mL | ≤ 0.25 µg/mL | ≤ 0.25 µg/mL | ≤ 0.25 µg/mL | 0.5 µg/mL | 0.5 µg/mL | 0.5 µg/mL | 4 µg/mL | rate of hydrolysis (initial velocity) in periplasm (VIM-2 [12]; 800 μM cefepime): 2.9e-07 M/s; rate of hydrolysis (initial velocity) in periplasm (VIM-24 [13]; 800 μM cefepime): 5.3e-07 M/s; MIC ([10]; MHA + 250 μM Zn^2+): 2 µg/mL; MIC (E. coli pBC SK(−); MHA + 5 μM EDTA): ≤ 0.25 µg/mL; MIC (E. coli pBC SK(−); MHA + 250 μM Zn^2+): ≤ 0.25 µg/mL; MIC ([11]; MHA + 5 μM EDTA): 4 µg/mL; MIC ([11]; MHA + 250 μM Zn^2+): 4 µg/mL
4 | O=C(O)[C@@H]1CS[C@H]2CS[C@H](CS)N21 [L-CS319] | – | – | – | – | – | – | – | – | – | – | – | – | – | – | – | – | – | – | – | – | Ki (VIM-24 [14]): 120 ± 20 nM; effect of prolonged exposure to oxidative conditions on inhibitory activity (MBLs): abolishes the inhibitory activity; Ki (VIM-2 [15]): 40 ± 10 nM
5 | CC(C)(O/N=C(\C(=O)N[C@@H]1C(=O)N2C(C(=O)[O-])=C(C[n+]3ccccc3)CS[C@H]12)c1csc(N)n1)C(=O)O [ceftazidime] | 128 µg/mL (≈ 234 µM) | 64 µg/mL (≈ 117 µM) | 1 µg/mL (≈ 1.83 µM) | 1 µg/mL (≈ 1.83 µM) | 16 µg/mL (≈ 29.3 µM) | 16 to 128 µg/mL (≈ 29.3 to 234 µM) | 128 µg/mL (≈ 234 µM) | 0.06 µg/mL (≈ 0.11 µM) | 64 µg/mL (≈ 117 µM) | 128 µg/mL | 512 µg/mL | 64 µg/mL | 128 µg/mL | ≤ 1 µg/mL | ≤ 1 µg/mL | ≤ 1 µg/mL | 4 µg/mL | 16 µg/mL | 32 µg/mL | 64 µg/mL | rate of hydrolysis (initial velocity) in periplasm (VIM-2 [12]; 400 μM ceftazidime): measurable rates of hydrolysis were not obtained; kcat/KM increase of VIM-24 compared to VIM-2 (VIM-24 [16]): 6 fold; rate of hydrolysis (initial velocity) in periplasm (VIM-24 [13]; 400 μM ceftazidime): 4e-07 M/s; MIC ([10]; MHA + 250 μM Zn^2+): 256 µg/mL; MIC (E. coli pBC SK(−); MHA + 5 μM EDTA): ≤ 1 µg/mL; MIC (E. coli pBC SK(−); MHA + 250 μM Zn^2+): ≤ 1 µg/mL; MIC ([11]; MHA + 5 μM EDTA): 32 µg/mL; MIC ([11]; MHA + 250 μM Zn^2+): 128 µg/mL
6 | CC(=O)OCC1=C(C(=O)O)N2C(=O)[C@@H](NC(=O)Cc3cccs3)[C@H]2SC1 [cephalothin] | 1020 µg/mL (≈ 2580 µM) | 256 µg/mL (≈ 646 µM) | 16 µg/mL (≈ 40.4 µM) | 16 µg/mL (≈ 40.4 µM) | 256 µg/mL (≈ 646 µM) | 64 to 256 µg/mL (≈ 161 to 646 µM) | 256 µg/mL (≈ 646 µM) | 8 µg/mL (≈ 20.2 µM) | 256 µg/mL (≈ 646 µM) | – | – | – | – | – | – | – | – | – | – | – | kcat (VIM-24 [17]): 150 ± 9 s⁻¹
